Test results published in patent US9260439B2, “Dihydropyrrolopyrimidine derivatives” (PFIZER INC., priority 2014, dated 2016).

Assays:
[1] = molecular target: full-length PI3Kα (full-length p110α/p85α) (Homo sapiens (Human), UniProt P42336); assay: PI3KA_FL fluorescence polarization kinase assay (Ki); assay type: biochemical; conditions: 41 μM ATP
[2] = molecular target: truncated PI3Kα (p110α/iSH2 p85α) (Homo sapiens (Human), UniProt P42336); assay: PI3KA_Act fluorescence polarization kinase assay (Ki); assay type: biochemical; conditions: 1 mM ATP
Summary of the method: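 Ki values result from fitting fluorescence polarization signals to the Morrison equation for tight-binding competitive inhibitors. The detector was GST-Grp1 PH domain with TAMRA-PIP3, read after a 30 min room-temperature reaction of 0.5 nM truncated PI3Kα and 30 μM PIP2 at pH 7.4 in HEPES/NaCl/MgCl2/DTT/CHAPS buffer. Compounds were tested as 12-point 3-fold dilutions from 3 μM.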

full-length PI3Kα (full-length p110α/p85α), sequence (P42336 whole entry, the tested form may be a part): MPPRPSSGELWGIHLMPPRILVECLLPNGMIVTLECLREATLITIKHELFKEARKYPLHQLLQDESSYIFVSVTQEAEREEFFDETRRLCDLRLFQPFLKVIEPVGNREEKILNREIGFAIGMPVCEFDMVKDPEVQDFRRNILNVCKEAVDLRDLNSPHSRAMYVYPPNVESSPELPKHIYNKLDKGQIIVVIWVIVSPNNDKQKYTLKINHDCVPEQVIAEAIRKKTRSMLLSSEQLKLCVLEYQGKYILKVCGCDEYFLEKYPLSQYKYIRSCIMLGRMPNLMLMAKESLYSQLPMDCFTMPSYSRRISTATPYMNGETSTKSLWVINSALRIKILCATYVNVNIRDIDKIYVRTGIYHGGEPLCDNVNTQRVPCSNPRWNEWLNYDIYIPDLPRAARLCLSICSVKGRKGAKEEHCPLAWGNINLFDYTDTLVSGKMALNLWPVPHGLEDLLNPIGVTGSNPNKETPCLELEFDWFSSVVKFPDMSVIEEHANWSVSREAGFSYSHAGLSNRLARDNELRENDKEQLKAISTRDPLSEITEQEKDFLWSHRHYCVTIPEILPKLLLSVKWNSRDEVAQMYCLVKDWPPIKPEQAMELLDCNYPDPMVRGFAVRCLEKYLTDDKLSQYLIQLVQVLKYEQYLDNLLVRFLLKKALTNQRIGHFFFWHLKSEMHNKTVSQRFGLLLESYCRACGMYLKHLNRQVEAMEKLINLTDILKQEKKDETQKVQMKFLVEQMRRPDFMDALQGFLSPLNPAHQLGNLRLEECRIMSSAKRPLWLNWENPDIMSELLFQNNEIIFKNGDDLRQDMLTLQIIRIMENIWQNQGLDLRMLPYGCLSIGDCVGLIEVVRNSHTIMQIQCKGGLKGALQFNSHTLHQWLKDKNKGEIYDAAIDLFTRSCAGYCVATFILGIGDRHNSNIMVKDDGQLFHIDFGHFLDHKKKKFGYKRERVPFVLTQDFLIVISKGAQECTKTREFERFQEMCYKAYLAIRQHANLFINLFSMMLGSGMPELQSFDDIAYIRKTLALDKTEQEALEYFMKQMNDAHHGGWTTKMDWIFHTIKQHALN
full-length PI3Kα (full-length p110α/p85α), sequence (P27986 whole entry partner, the tested form may be a part): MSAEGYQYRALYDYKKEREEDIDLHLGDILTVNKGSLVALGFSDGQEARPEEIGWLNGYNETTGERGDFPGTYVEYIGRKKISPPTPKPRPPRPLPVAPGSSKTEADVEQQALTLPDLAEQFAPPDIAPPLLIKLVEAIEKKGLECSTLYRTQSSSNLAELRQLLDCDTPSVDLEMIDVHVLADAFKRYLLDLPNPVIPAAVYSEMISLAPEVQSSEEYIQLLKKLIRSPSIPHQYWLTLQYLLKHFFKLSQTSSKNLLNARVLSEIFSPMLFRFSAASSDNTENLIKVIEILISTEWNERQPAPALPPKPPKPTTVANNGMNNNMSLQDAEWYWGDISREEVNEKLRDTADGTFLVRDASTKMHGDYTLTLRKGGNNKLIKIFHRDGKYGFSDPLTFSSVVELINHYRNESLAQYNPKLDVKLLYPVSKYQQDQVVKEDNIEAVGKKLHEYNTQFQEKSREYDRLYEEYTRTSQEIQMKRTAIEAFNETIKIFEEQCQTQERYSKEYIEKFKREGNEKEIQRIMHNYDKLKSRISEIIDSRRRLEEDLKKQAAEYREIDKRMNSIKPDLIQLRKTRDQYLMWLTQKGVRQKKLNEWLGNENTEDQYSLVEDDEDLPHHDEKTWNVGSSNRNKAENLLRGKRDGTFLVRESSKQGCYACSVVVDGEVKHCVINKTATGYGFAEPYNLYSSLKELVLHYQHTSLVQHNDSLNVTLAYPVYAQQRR
truncated PI3Kα (p110α/iSH2 p85α), sequence (P42336 whole entry, the tested form may be a part): as the sequence (P42336 whole entry, the tested form may be a part) above

SMILES | PI3KA_FL Ki (nM) [1] | PI3KA_Act Ki [2] | PI3KA_FL Ki [1]
CCS(=O)(=O)N1CC(N2CCc3c(-c4cnc(N)nc4)nc(N4CCOC[C@@H]4C)nc32)C1 [Example 115] | ≦0.229 nM | 0.105 nM | 
Nc1ncc(-c2nc(N3CCOCC3)nc3c2CCN3C2CC(F)(F)C2)cn1 [Example 13] |  | 0.211 nM | 0.307 nM
CC(C)(C)N1CCc2c(-c3cnc(N)nc3)nc(N3CCOCC3)nc21 [Example 132] | ≦0.229 nM | 0.150 nM | 
CS(=O)(=O)N[C@H]1C[C@H](N2CCc3c(-c4cnc(N)nc4)nc(N4CCOCC4)nc32)C1 [Example 105] |  | 0.157 nM | 0.285 nM
C[C@H]1COCCN1c1nc(-c2cnc(N)nc2)c2c(n1)N([C@H]1CCN(S(=O)(=O)C3CC3)C1)CC2 [Example 121] | ≦0.229 nM | 0.056 nM | 
C[C@H]1COCCN1c1nc(-c2cnc(N)nc2)c2c(n1)N(C1CN(S(=O)(=O)N(C)C)C1)CC2 [Example 120] | ≦0.229 nM | 0.030 nM | 
CNS(=O)(=O)O[C@H]1C[C@H](N2CCc3c(-c4cnc(N)nc4)nc(N4CCOCC4)nc32)C1 [Example 95] | ≦0.229 nM | 0.078 nM | 
CNS(=O)(=O)N(C)[C@H]1C[C@@H](N2CCc3c(-c4cnc(N)nc4)nc(N4CCOCC4)nc32)C1 [Example 57] |  | 0.465 nM | 0.318 nM
CNS(=O)(=O)N(C)[C@H]1C[C@H](N2CCc3c(-c4cnc(N)nc4)nc(N4CCOCC4)nc32)C1 [Example 46] |  | 0.187 nM | 0.412 nM
CC(C)S(=O)(=O)N1CC[C@@H](N2CCc3c(-c4cnc(N)nc4)nc(N4CCOCC4)nc32)C1 [Example 111] | ≦0.229 nM | 0.151 nM | 
CCS(=O)(=O)N1CC(N2CCc3c(-c4cnc(N)nc4)nc(N4CCOCC4)nc32)C1 [Example 108] | ≦0.229 nM | 0.122 nM | 
C[C@H]1COCCN1c1nc(-c2cnc(N)nc2)c2c(n1)N(C1CN(S(C)(=O)=O)C1)CC2 [Example 113] | ≦0.229 nM | 0.289 nM | 
CC(=O)N1C[C@@H](F)[C@@H](N2CCc3c(-c4cnc(N)nc4)nc(N4CCOCC4)nc32)C1 (single isomer, unassigned) [Example 74] |  | 2.441 nM | 5.079 nM
CN(C)S(=O)(=O)N1CC[C@H](N2CCc3c(-c4cnc(N)nc4)nc(N4CCOCC4)nc32)C1 [Example 82] |  | 0.100 nM | 0.240 nM
CC(C)S(=O)(=O)N1CC[C@H](N2CCc3c(-c4cnc(N)nc4)nc(N4CCOC[C@@H]4C)nc32)C1 [Example 131] | ≦0.229 nM | 0.044 nM | 
Nc1ncc(-c2nc(N3CCOCC3)nc3c2CCN3[C@@H]2CCC(F)(F)C2)cn1 (single isomer, unassigned) [Example 35] |  | 0.311 nM | 0.393 nM
CCS(=O)(=O)N1CC[C@H](N2CCc3c(-c4cnc(N)nc4)nc(N4CCOCC4)nc32)C1 [Example 101] | ≦0.229 nM | 0.093 nM | 
C[C@H]1COCCN1c1nc(-c2cnc(N)nc2)c2c(n1)N([C@H]1CCN(S(N)(=O)=O)C1)CC2 [Example 100] | ≦0.229 nM | 0.132 nM | 
CNS(=O)(=O)N1C[C@@H](N2CCc3c(-c4cnc(N)nc4)nc(N4CCOC[C@@H]4C)nc32)[C@H](OC)C1 [Example 117] |  | 0.179 nM | 0.256 nM
CCOC(=O)N1CC[C@H](N2CCc3c(-c4cnc(N)nc4)nc(N4CCOC[C@@H]4C)nc32)C1 [Example 125] | ≦0.229 nM | 0.087 nM | 
Nc1ncc(-c2nc(N3CCOCC3)nc3c2CCN3[C@H]2CCC(F)(F)C2)cn1 (single isomer, unassigned) [Example 34] |  | 0.730 nM | 0.469 nM
COC(=O)N1CC(N2CCc3c(-c4cnc(N)nc4)nc(N4CCOCC4)nc32)C1 [Example 61] |  | 0.235 nM | 0.234 nM
CNS(=O)(=O)N1C[C@@H](O)[C@H](N2CCc3c(-c4cnc(N)nc4)nc(N4CCOC[C@@H]4C)nc32)C1 [Example 128] | ≦0.229 nM | 0.126 nM | 
Nc1ncc(-c2nc(N3CCOCC3)nc3c2CCN3[C@H]2CCN(S(=O)(=O)C3CC3)C2)cn1 [Example 102] | ≦0.229 nM | 0.067 nM | 
N#C[C@H]1C[C@H](N2CCc3c(-c4cnc(N)nc4)nc(N4CCOCC4)nc32)C1 [Example 59] | ≦0.229 nM | 0.122 nM | 
Nc1ncc(-c2nc(N3CCOCC3)nc3c2CCN3C2CN(S(N)(=O)=O)C2)cn1 [Example 72] | ≦0.229 nM | 0.129 nM | 
